Measurements published in patent US20170071879A1, “PROTOTYPICAL ANALGESIC PROFILE OF 3,3-DIPHENYL-N-(1-PHENYLETHYL)PROPAN-1-AMINE (FENDILINE)” (priority 2015, published 2017).
Where two headings read alike, the source gives them in different places.

Legend:
sigma-1 = sigma-1 (Homo sapiens, UniProt Q99720); experiment: sigma-1 affinity; assay type: binding
[1] = system: Maximal Electrochoc Seizures (MES); experiment: Maximal Electrochoc Seizures (MES); assay type: in vivo; conditions: mice
[2] = system: Paclitaxel induced neuropathic sensitization (PINS); experiment: Paclitaxel induced neuropathic sensitization (PINS) in the formalin test of pain; assay type: in vivo; conditions: mice; for suppression of PINS: 35-40 mn central sensitization phase, formalin induced pain
Description: Fendiline at 1 or 5 mg/kg, per os (po) suppressed the PINS by 75% or 63%, respectively, in the 35-40 mn central sensitization phase, in the formalin induced pain, in mice (Compound A1).
When fendiline was administered at 25 or 75 mg/kg (po) per os (po), PINS diminished by 181% or 275%, respectively in mice (Compound A2), i.e., less pain reaction than the control which hadn't receive Paclitaxel.

sigma-2 receptors = sigma-2 receptors (Homo sapiens, UniProt Q5BJF2); experiment: sigma-2 receptor affinity; assay type: binding
brain dopamine turnover [3] = experiment: brain dopamine turnover, rats; assay type: in vivo; conditions: 5-50 mg/kg ip
From the text: (§1) It could be co-administered with the μ-ORAs amplifying their analgesic activity and, more importantly, protecting against the opioid dependence of the μ-ORAs.

brain dopamine turnover [4] = conditions: rats; cited from earlier work
brain dopamine turnover [5] = experiment: brain dopamine turnover, mice; assay type: in vivo; conditions: 5-50 mg/kg ip
From the text: as §1

[6] = system: Pentylenetetrazole (PTZ) convulsions; experiment: Pentylenetetrazole (PTZ) convulsions; assay type: in vivo; conditions: mice
brain dopamine turnover [7] = conditions: mice; cited from earlier work

sigma-2 receptors, sequence (Q5BJF2 whole entry): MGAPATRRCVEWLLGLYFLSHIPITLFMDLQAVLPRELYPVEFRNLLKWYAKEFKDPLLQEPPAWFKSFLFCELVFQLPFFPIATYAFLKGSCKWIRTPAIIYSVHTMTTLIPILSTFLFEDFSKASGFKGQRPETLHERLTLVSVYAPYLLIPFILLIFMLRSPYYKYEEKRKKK
sigma-1, sequence (Q99720 whole entry): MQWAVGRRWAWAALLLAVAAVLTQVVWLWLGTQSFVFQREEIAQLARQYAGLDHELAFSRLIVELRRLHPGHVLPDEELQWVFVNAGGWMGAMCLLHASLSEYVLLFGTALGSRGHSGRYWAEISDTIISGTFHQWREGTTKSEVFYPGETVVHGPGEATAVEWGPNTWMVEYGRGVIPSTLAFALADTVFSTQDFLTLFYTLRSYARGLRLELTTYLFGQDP

CC(NCCC(c1ccccc1)c1ccccc1)c1ccccc1 (stereo not drawn) [Fendiline, 3,3-diphenyl-N-(1-phenylethyl) propan-1-amine]
Ki (sigma-1): 14 to 18 nM
anticonvulsive activity in MES [1]: absence of anticonvulsive activities
suppression of PINS ([2]; 1 mg/kg po): 75%
suppression of PINS ([2]; 5 mg/kg po): 63%
PINS diminished ([2]; 25 mg/kg po): 181%
PINS diminished ([2]; 75 mg/kg po): 275%
Ki (sigma-2 receptors): 730 to 850 nM
brain DA turnover (brain dopamine turnover [3]): decrease of the DA turnover
brain dopamine turnover (brain dopamine turnover [4]): decrease of the brain dopamine turnover
brain DA turnover (brain dopamine turnover [5]): decrease of the DA turnover
anticonvulsive activity in PTZ convulsions [6]: absence of anticonvulsive activities
brain dopamine turnover (brain dopamine turnover [7]): decrease of the brain dopamine turnover
